Data on 21 compounds can be found in patent US9034897B2, “Indanyl-substituted 4,5,6,7-tetrahydro-1H-pyrazolo[4,3-C]pyridines, their use as medicament, and pharmaceutical preparations comprising them” (SANOFI, priority 2011, dated 2015).

Experiment [1] has as its target Human TASK-1 channels (Homo sapiens (Human), UniProt O14649). Nature of the experiment: Activity on the TASK-1 channel in Xenopus oocytes (two-microelectrode voltage clamp). Format: cell-based. The conditions noted are these: for pIC50: human TASK-1 expressed in Xenopus oocytes, currents during 500 ms pulses to 40 mV, room temperature; for inhibition at 5 µM: percentage inhibition of TASK-1 control current, Xenopus oocytes. The method, then: Determination of the activity on the TASK-1 channel in Xenopus oocytes:
Human TASK-1 channels were expressed in Xenopus oocytes. For this purpose, oocytes were isolated from Xenopus laevis and defolliculated. Subsequently, TASK-1-encoding RNA synthesized in vitro was injected into oocytes. After two days of TASK-1 protein expression, TASK-1 currents were measured by two-microelectrode voltage clamp. Data were acquired and analyzed using a TEC-10cx amplifier (NPI Electronic, Tamm, Germany) connected to an ITC-16 interface (Instrutech Corp., Long Island, USA) and Pulse software (HEKA Elektronik, Lambrecht, Germany). Oocytes were clamped to −90 mV and TASK-1 mediated currents were measured during 500 ms voltage pulses to 40 mV. Oocytes were continuously superfused with ND96 buffer containing: NaCl 96 mM, KCl2 mM, CaCl2 1.8 mM, MgCl2 1 mM, HEPES 5 mM (pH adjusted to 7.4 with NaOH). All experiments were performed at room temperature.
Test substances were consecutively added to the bath solution at rising concentrations. Compound effects were calculated as the percentage inhibition of
TASK-1 control current before compound application. IC50 values were obtained by fitting the data to the general dose-response equation.

The subject of experiment [2] is left atrium of the anesthetized pig. Nature of the experiment: Refractory period and left-atrial vulnerability in the anesthetized pig. As to conditions: bolus 1 mg/kg, n = 2. In kind it is in vivo. Here is the method:
Investigation of the refractory period and the left-atrial vulnerability in the pig:
The compounds were tested for prolongation of the refractory period and antiarrhythmic activity on the atrium of the anesthetized pig as described in the literature (Knobloch et al. 2002. Naunyn-Schmiedberg's Arch. Pharmacol. 366; 482-487). Here the anti-arrhythmic action relates to the inhibition of the occurrence of episodes of arrhythmias which are induced by a prematurely placed extra-stimulus (S2) in the left atrium (=left-atrial vulnerability). The refractory period values are stated in percent of the basal values 15 minutes after injection. Mean values for the refractory periods are shown from three rates (150, 200 and 250/min). The inhibitory values for the inhibition of episodes of arrhythmias refer to 3 measurements (3 timepoints) before administration vs. 3 measurements during the first hour after administration of the compounds.
The action of 3-[5-Acetyl-1-((1R,2R)-6-chloro-4-fluoro-2-hydroxy-indan-1-yl)-4,5,6,7-tetrahydro-1H-pyrazolo[4,3-c]pyridin-3-yl]-benzonitrile (11j) on the refractory period of the left atrium and antiarrhythmic activity in the anesthetized pig after a bolus administration of 1 mg/kg is shown in table 12. From the results shown in table 12, it is seen that it was possible to prevent 82% of the induced arrhythmias.

pIC50: −log10 of the molar value.

In general, pIC50 refers to the IC50 on a negative log10 scale, so that one unit is a factor of ten. A low value points to a large IC50. In general, inhibition refers to the change of the read-out against control, counted positive when it falls. A lower inhibition goes with a weak effect.

Human TASK-1 channels, sequence (O14649 whole entry): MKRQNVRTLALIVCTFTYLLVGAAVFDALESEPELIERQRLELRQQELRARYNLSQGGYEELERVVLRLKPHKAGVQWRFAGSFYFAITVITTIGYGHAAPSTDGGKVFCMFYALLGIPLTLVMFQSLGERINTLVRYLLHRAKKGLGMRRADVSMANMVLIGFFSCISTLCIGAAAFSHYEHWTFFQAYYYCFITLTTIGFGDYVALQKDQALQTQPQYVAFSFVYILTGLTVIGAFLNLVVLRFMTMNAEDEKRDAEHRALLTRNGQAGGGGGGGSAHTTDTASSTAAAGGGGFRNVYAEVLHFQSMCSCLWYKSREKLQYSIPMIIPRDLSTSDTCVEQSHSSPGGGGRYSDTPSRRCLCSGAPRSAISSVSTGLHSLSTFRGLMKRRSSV

In turn, `CC(=O)N1CCc2c(c(-c3ccc(F)cc3)nn2[C@@H]2c3cc(Cl)ccc3C[C@H]2O)C1` [Example 11s, 1-[1-((1R,2R)-6-Chloro-2-hydroxy-indan-1-yl)-3-(4-fluoro-phenyl)-1,4,6,7-tetrahydro-pyrazolo[4,3-c]pyridin-5-yl]-ethanone] had a pIC50 in experiment [1] of 6.09.
The same measure, in the same setting: the value for `CC(=O)N1CCc2c(c(-c3cccc(C(F)(F)F)c3)nn2[C@@H]2c3cc(F)cc(F)c3C[C@H]2O)C1` [Example 11q, 1-[1-((1R,2R)-4,6-Difluoro-2-hydroxy-indan-1-yl)-3-(3-trifluoromethyl-phenyl)-1,4,6,7-tetrahydro-pyrazolo[4,3-c]pyridin-5-yl]-ethanone] was 6.11.
For the compound `CC(=O)N1CCc2c(c(-c3cccc(C#N)c3)nn2[C@@H]2c3cc(F)cc(F)c3C[C@H]2O)C1` [Example 11t, 3-[5-Acetyl-1-((1R,2R)-4,6-difluoro-2-hydroxy-indan-1-yl)-4,5,6,7-tetrahydro-1H-pyrazolo[4,3-c]pyridin-3-yl]-benzonitrile], the negative logarithm of the IC50 (pIC50) in experiment [1] is 6.06.
With `CC(=O)N1CCc2c(c(-c3cccc(C#N)c3)nn2[C@@H]2c3cc(Cl)cc(F)c3C[C@H]2O)C1` [Example 11j, 3-[5-Acetyl-1-((1R,2R)-6-chloro-4-fluoro-2-hydroxy-indan-1-yl)-4,5,6,7-tetrahydro-1H-pyrazolo[4,3-c]pyridin-3-yl]-benzonitrile], the “% inhibition of the arrhythmias” value in experiment [2] (S2-induced left-atrial arrhythmias, first hour after administration) was 82%. For the same compound, in experiment [2] (left atrium, 15 minutes after injection, mean of three rates (150, 200 and 250/min)), the “% increase in the refractory period” value is 20%. The same compound gave a negative logarithm of the IC50 (pIC50) in experiment [1] of 6.36.
In experiment [1], `CCc1cc(F)cc2c1C[C@@H](O)[C@@H]2n1nc(-c2cccc(C#N)c2)c2c1CCN(C(C)=O)C2` [Example 19b, 3-[5-Acetyl-1-((1R,2R)-4-ethyl-6-fluoro-2-hydroxy-indan-1-yl)-4,5,6,7-tetrahydro-1H-pyrazolo[4,3-c]pyridin-3-yl]-benzonitrile] came in with an inhibition at 5 µM of 82%.
On to `COc1ccc(-c2nn([C@@H]3c4cc(F)cc(F)c4C[C@H]3O)c3c2CN(C(C)=O)CC3)cc1` [Example 11ad, 1-[1-((1R,2R)-4,6-Difluoro-2-hydroxy-indan-1-yl)-3-(4-methoxy-phenyl)-1,4,6,7-tetrahydro-pyrazolo[4,3-c]pyridin-5-yl]-ethanone], for which the negative logarithm of the IC50 (pIC50) in experiment [1] is 5.16.
In turn, `CO[C@@H]1Cc2c(F)cc(F)cc2[C@H]1n1nc(-c2cccc(C#N)c2)c2c1CCN(C(C)=O)C2` [Example 16a, 3-[5-Acetyl-1-((1R,2R)-4,6-difluoro-2-methoxy-indan-1-yl)-4,5,6,7-tetrahydro-1H-pyrazolo[4,3-c]pyridin-3-yl]-benzonitrile] showed a negative logarithm of the IC50 (pIC50) in experiment [1] of 6.35.
In turn, `CC(=O)N1CCc2c(c(-c3cccc(OC(F)(F)F)c3)nn2[C@H]2c3cc(F)cc(F)c3C[C@@H]2O)C1` [Example 11r, 1-[1-((1S,2S)-4,6-Difluoro-2-hydroxy-indan-1-yl)-3-(3-trifluoromethoxy-phenyl)-1,4,6,7-tetrahydro-pyrazolo[4,3-c]pyridin-5-yl]-ethanone] showed a negative logarithm of the IC50 (pIC50) in experiment [1] of 6.10. This pIC50 lies 0.25 log units lower than the previous one.
For the compound `CC(=O)N1CCc2c(c(-c3ccc(F)cc3)nn2[C@@H]2CCc3ccccc32)C1` [Example 12a, 1-[(R)-3-(4-Fluoro-phenyl)-1-indan-1-yl-1,4,6,7-tetrahydro-pyrazolo[4,3-c]pyridin-5-yl]-ethanone], the negative logarithm of the IC50 (pIC50) in experiment [1] is 6.15.
With `CCNC(=O)N1CCc2c(c(-c3cccc(C#N)c3)nn2[C@@H]2c3cc(Cl)cc(Cl)c3C[C@H]2O)C1` [Example 22a, 3-(3-Cyano-phenyl)-1-((1R,2R)-4,6-dichloro-2-hydroxy-indan-1-yl)-1,4,6,7-tetrahydro-pyrazolo[4,3-c]pyridine-5-carboxylic acid ethylamide], in experiment [1], the negative logarithm of the IC50 (pIC50) is 6.74.
As for `CC(=O)N1CCc2c(c(-c3ccc(C)cc3)nn2[C@@H]2c3cc(F)cc(F)c3C[C@H]2O)C1` [Example 11x, 1-[1-((1R,2R)-4,6-Difluoro-2-hydroxy-indan-1-yl)-3-p-tolyl-1,4,6,7-tetrahydro-pyrazolo[4,3-c]pyridin-5-yl]-ethanone], in experiment [1], the negative-log IC50 (pIC50) is 5.82. Compared with the last compound, the pIC50 is 0.92 log units lower.
With `N#Cc1cccc(-c2nn([C@@H]3c4cc(F)cc(F)c4C[C@H]3O)c3c2CN(CC2CC2)CC3)c1` [Example 18e, 3-[5-Cyclopropylmethyl-1-((1R,2R)-4,6-difluoro-2-hydroxy-indan-1-yl)-4,5,6,7-tetrahydro-1H-pyrazolo[4,3-c]pyridin-3-yl]-benzonitrile], the inhibition at 5 µM in experiment [1] was 81%.
With `CC(=O)N1CCc2c(c(-c3cccc(C#N)c3)nn2[C@@H]2c3cc(F)cc(Br)c3C[C@H]2O)C1` [Example 11d, 3-[5-Acetyl-1-((1R,2R)-4-bromo-6-fluoro-2-hydroxy-indan-1-yl)-4,5,6,7-tetrahydro-1H-pyrazolo[4,3-c]pyridin-3-yl]-benzonitrile], the negative logarithm of the IC50 (pIC50) in experiment [1] is 6.65.
Still for that read-out and setting: the value for `CC(=O)N1CCc2c(c(-c3ccc(F)cc3)nn2[C@H]2CCc3ccccc32)C1` [Example 12b, 1-[(S)-3-(4-Fluoro-phenyl)-1-indan-1-yl-1,4,6,7-tetrahydro-pyrazolo[4,3-c]pyridin-5-yl]-ethanone] was 6.32; that for `CC(=O)N1CCc2c(c(-c3cccc(C#N)c3)nn2[C@H]2c3cc(F)cc(F)c3C[C@@H]2O)C1` [Example 11o, 3-[5-Acetyl-1-((1S,2S)-4,6-difluoro-2-hydroxy-indan-1-yl)-4,5,6,7-tetrahydro-1H-pyrazolo[4,3-c]pyridin-3-yl]-benzonitrile] was 6.17; that for `CC(=O)N1CCc2c(c(-c3ccc(F)c(C#N)c3)nn2[C@@H]2c3cc(F)cc(F)c3C[C@H]2O)C1` [Example 11z, 5-[5-Acetyl-1-((1R,2R)-4,6-difluoro-2-hydroxy-indan-1-yl)-4,5,6,7-tetrahydro-1H-pyrazolo[4,3-c]pyridin-3-yl]-2-fluoro-benzonitrile] was 5.67.
`CS(=O)(=O)N1CCc2c(c(-c3cccc(C#N)c3)nn2[C@@H]2c3cc(Cl)cc(Cl)c3C[C@H]2O)C1` [Example 23a, 3-[1-((1R,2R)-4,6-Dichloro-2-hydroxy-indan-1-yl)-5-methanesulfonyl-4,5,6,7-tetrahydro-1H-pyrazolo[4,3-c]pyridin-3-yl]-benzonitrile] returned an inhibition at 5 µM in experiment [1] of 80%.
Compound `CCC(=O)N1CCc2c(c(-c3cccc(C#N)c3)nn2[C@@H]2c3cc(F)cc(F)c3C[C@H]2O)C1` [Example 14a, 3-[1-((1R,2R)-4,6-Difluoro-2-hydroxy-indan-1-yl)-5-propionyl-4,5,6,7-tetrahydro-1H-pyrazolo[4,3-c]pyridin-3-yl]-benzonitrile] showed a pIC50 in experiment [1] of 7.15.
As for `O[C@@H]1Cc2c(F)cc(F)cc2[C@H]1n1nc(-c2ccc(F)cc2)c2c1CCN(CC1CC1)C2` [Example 18a, (1R,2R)-1-[5-cyclopropylmethyl-3-(4-fluoro-phenyl)-4,5,6,7-tetrahydro-pyrazolo[4,3-c]pyridin-1-yl]-4,6-difluoro-indan-2-ol], the negative logarithm of the IC50 (pIC50) in experiment [1] is 6.30. This pIC50 is 0.85 log units lower than that of the compound before.
The compound `CC(C)(C)C(=O)N1CCc2c(c(-c3cccc(C#N)c3)nn2[C@@H]2c3cc(F)cc(F)c3C[C@H]2O)C1` [Example 14d, 3-[1-((1R,2R)-4,6-Difluoro-2-hydroxy-indan-1-yl)-5-(2,2-dimethyl-propionyl)-4,5,6,7-tetrahydro-1H-pyrazolo[4,3-c]pyridin-3-yl]-benzonitrile] yielded an inhibition at 5 µM in experiment [1] of 94%.
Consider `CC(=O)N1CCc2c(c(-c3ccc(F)cc3)nn2[C@@H]2c3cc(Cl)cc(F)c3C[C@H]2O)C1` [Example 11n, 1-[1-((1R,2R)-6-Chloro-4-fluoro-2-hydroxy-indan-1-yl)-3-(4-fluoro-phenyl)-1,4,6,7-tetrahydro-pyrazolo[4,3-c]pyridin-5-yl]-ethanone], for which the pIC50 in experiment [1] is 6.25.
